Test results from article PMC5653977 (EMBO Molecular Medicine, 2017).
Structures can show the parent of a compound that is named as a salt.

tested on: NRG1-ERBB4 signaling; assay: Nrg1-ERBB4-PIK3R1 split TEV co-culture compound screen of the NIH Clinical Collection; type: cell-based, human; conditions: NIH Clinical Collection NCC-003 raw data; compounds ranked by Z-score; 'flagged' given instead of a Z-score

With `CC(=O)[C@]1(O)Cc2c(O)c3c(c(O)c2[C@@H](O[C@H]2C[C@H](N)[C@H](O)[C@H](C)O2)C1)C(=O)c1ccccc1C3=O` [IDARUBICIN HCl] the Z-SCORE was “flagged”.
In the case of `O=C([O-])C[C@H](O)C[C@H](O)/C=C/c1c(C2CC2)nc2ccccc2c1-c1ccc(F)cc1.O=C([O-])C[C@H](O)C[C@H](O)/C=C/c1c(C2CC2)nc2ccccc2c1-c1ccc(F)cc1.[Ca+2]` [ITAVASTATIN Ca], the Z-SCORE is reported as “flagged”.

First: Nc1nc(N)nc(-c2cc(Cl)ccc2Cl)n1 [IRSOGLADINE MALEATE]
Second: CCC(C)n1ncn(-c2ccc(N3CCN(c4ccc(OCC5COC(Cn6cncn6)(c6ccc(Cl)cc6Cl)O5)cc4)CC3)cc2)c1=O (centres unmarked) [Itraconazole, reference compound]
The Z-SCORE of the first is higher: -1.2 for the first, -3.6 for the second.

Going from `COC(=O)C1=C(C)NC(C)=C(C(=O)OC(C)C)C1c1cccc2nonc12` (centres unmarked) [ISRADIPINE] to `Cc1c(OCC(F)(F)F)ccnc1C[S+]([O-])c1nc2ccccc2[nH]1` (centres unmarked) [LANSOPRAZOLE], the Z-SCORE rises from -1.94 to -1.16.

Compared with `CC(=O)NC[C@H]1CN(c2ccc(N3CCOCC3)c(F)c2)C(=O)O1` [LINEZOLID], `COc1ccc(CN2CCN(C(c3ccc(F)cc3)c3ccc(F)cc3)CC2)c(OC)c1OC.Cl.Cl` [LOMERIZINE DiHCl] is lower in Z-SCORE: -1.43 for the first, -1.48 for the second.

same assay, conditions: compound screen of the NIH Clinical Collection, sheet raw data NCC-003; compounds ranked by Z-score

Going from `COC1=C(OC)C(=O)C(CCCCCCCCCCO)=C(C)C1=O` [IDEBENONE] to `CCCc1c(OCCCCc2nnn[nH]2)ccc(C(C)=O)c1O` [LY 171883], the Z-SCORE falls from 2.79 to 2.04.

Going from `CC(C)(C)NC(=O)[C@@H]1CN(Cc2cccnc2)CCN1C[C@@H](O)C[C@@H](Cc1ccccc1)C(=O)N[C@H]1c2ccccc2C[C@H]1O` [INDINAVIR SULPHATE] to `CC(C(O)c1ccc(O)cc1)N1CCC(Cc2ccccc2)CC1` (centres unmarked) [Ifenprodil], the Z-SCORE rises from 0.35 to 1.07.

First: CC(C)Oc1ccc2c(=O)c(-c3ccccc3)coc2c1 [IPRIFLAVONE]
Second: O=C1Nc2ccccc2/C1=C1/Nc2ccccc2C1=O [Indirubin]
The Z-SCORE of the first is higher: 1.41 for the first, 0.67 for the second.

Compared with `COc1ccc(C(=O)NCc2ccc(OCCN(C)C)cc2)cc1OC.Cl` [ITOPRIDE HCl], `COc1ccc2c(c1)c(CC(=O)O)c(C)n2C(=O)c1ccc(Cl)cc1` [Indomethacin] is lower in Z-SCORE: 1.68 for the first, 0.08 for the second.

Going from `CNC1CC(c2ccc(Cl)c(Cl)c2)c2ccccc21` (centres unmarked) [Indatraline] to `CC(Oc1c(Cl)cccc1Cl)C1=NCCN1` (centres unmarked) [LOFEXIDINE HCl], the Z-SCORE falls from 0.28 to -0.17.

Compared with `CCCCC1=NC2(CCCC2)C(=O)N1Cc1ccc(-c2ccccc2-c2nnn[nH]2)cc1` [Irbesartan, reference compound], `CCCCc1nc(Cl)c(CO)n1Cc1ccc(-c2ccccc2-c2nn[nH]n2)cc1` [LOSARTAN Potassium] is lower in Z-SCORE: 4.26 for the first, -0.12 for the second.

Going from `O=c1c(O[C@@H]2O[C@H](CO)[C@@H](O)[C@H](O)[C@H]2O)c(-c2ccc(O)c(O)c2)oc2cc(O)cc(O)c12` [Isoquercitrin] to `CO[C@@H]1[C@@H](O[C@@H]2O[C@H](C)[C@@H](O[C@H]3C[C@@](C)(O)[C@@H](OC(=O)CC(C)C)[C@H](C)O3)[C@H](N(C)C)[C@H]2O)[C@@H](CC=O)C[C@@H](C)[C@@H](O)/C=C/C=C/C[C@@H](C)OC(=O)C[C@H]1O` [KITASAMYCIN], the Z-SCORE rises from 0.55 to 1.6.

Going from `CN1CCC(=C2c3ccccc3CC(=O)c3sccc32)CC1` [KETOTIFEN FUMARATE] to `CCOC(=O)N1CCC(=C2c3ccc(Cl)cc3CCc3cccnc32)CC1` [LORATADINE], the Z-SCORE rises from -0.37 to 0.21.

Going from `CC(=O)N1CCN(c2ccc(OCC3COC(Cn4ccnc4)(c4ccc(Cl)cc4Cl)O3)cc2)CC1` (centres unmarked) [Ketoconazole] to `O=C(O)COCCN1CCN([C@H](c2ccccc2)c2ccc(Cl)cc2)CC1` [LEVOCETIRIZINE], the Z-SCORE rises from -1.1 to 0.15.

Going from `O=C(c1ccccc1)c1ccc2n1CCC2C(=O)O` (centres unmarked) [Ketorolac tromethamine] to `CN1[C@@H](CC(=O)c2ccccc2)CCC[C@H]1C[C@H](O)c1ccccc1` [LOBELINE HYDROCHLORIDE], the Z-SCORE rises from -0.4 to 0.14.

First: CCOC(=O)C1=C(C)NC(C)=C(C(=O)OCC)C1c1ccccc1/C=C/C(=O)OC(C)(C)C [LACIDIPINE]
Second: CCOC(=O)O[C@]1(C(=O)OCCl)CC[C@H]2[C@@H]3CCC4=CC(=O)C=C[C@]4(C)[C@H]3[C@@H](O)C[C@@]21C [LOTEPREDNOL ETABONATE]
The Z-SCORE of the first is lower: -0.35 for the first, 0.32 for the second.

First: Nc1ccn([C@@H]2CS[C@H](CO)O2)c(=O)n1 [LAMIVUDINE, reference compound]
Second: CCN1CCC[C@H]1CNC(=O)c1cc(S(N)(=O)=O)ccc1OC [LEVOSULPIRIDE]
The Z-SCORE of the first is higher: 0.14 for the first, -0.53 for the second.

First: Nc1nnc(-c2cccc(Cl)c2Cl)c(N)n1 [LAMOTRIGINE]
Second: CCN(CC)CC(=O)Nc1c(C)cccc1C [LIDOCAINE]
The Z-SCORE of the first is lower: 0.3 for the first, 1.02 for the second.

Compared with `CC(C)OC(=O)CCC/C=C\C[C@@H]1[C@@H](CC[C@@H](O)CCc2ccccc2)[C@H](O)C[C@@H]1O` [LATANOPROST], `CC(C(=O)O)c1ccc(CC2CCCC2=O)cc1` (centres unmarked) [LOXOPROFEN SODIUM] is higher in Z-SCORE: -0.3 for the first, 0.32 for the second.

Compared with `N#Cc1ccc(C(c2ccc(C#N)cc2)n2cncn2)cc1` [LETROZOLE], `CN(CCCN1c2ccccc2CCc2ccccc21)CC(=O)c1ccc(Cl)cc1` [LOFEPRAMINE] is higher in Z-SCORE: -1.06 for the first, -0.53 for the second.

Going from `C[C@H]1COc2c(N3CCN(C)CC3)c(F)cc3c(=O)c(C(=O)O)cn1c23` [LEVOFLOXACIN] to `CC(=O)CCCCn1cnc2c1c(=O)n(C)c(=O)n2C` [LOMIFYLLINE], the Z-SCORE falls from -0.28 to -0.7.

Work on `C#C[C@]1(O)CC[C@H]2[C@@H]3CCC4=CC(=O)CC[C@@H]4[C@H]3CC[C@@]21CC` [LEVONORGESTREL] yielded a Z-SCORE of -1.05.

same assay, conditions: compounds at 10 μM, 24 h; PC12 split TEV assay cells co-cultured with Nrg1-expressing PC12 cells; analysed with cellHTS2

Compared with `CC1Cc2ccccc2N1NC(=O)c1ccc(Cl)c(S(N)(=O)=O)c1` (centres unmarked) [INDAPAMIDE, reference compound], `CC(C(=O)O)c1cccc(C(=O)c2ccccc2)c1` (centres unmarked) [KETOPROFEN, reference compound] is higher in Z-SCORE: 0.07 for the first, 0.15 for the second.

Compared with `CC(C)[N+]1(C)[C@@H]2CC[C@H]1C[C@@H](OC(=O)C(CO)c1ccccc1)C2.O.[Br-]` (some centres unmarked) [IPRATROPIUM BROMIDE MONOHYDRATE, reference compound], `CC(C)NCC(O)COc1cccc2ccccc12` (centres unmarked) [Inderal, reference compound] is lower in Z-SCORE: 0.31 for the first, -0.81 for the second.

First: CN(C)C(=O)C(CCN1CCC(O)(c2ccc(Cl)cc2)CC1)(c1ccccc1)c1ccccc1 [Imodium, reference compound]
Second: OC(CCN1CCCC1)(c1ccccc1)C1CCCCC1 (centres unmarked) [Kemadrin, reference compound]
The Z-SCORE of the first is higher: -0.18 for the first, -0.51 for the second.

Going from `NCCc1ccc(O)c(O)c1` [Intropin, reference compound] to `CC(C)NCC(O)c1ccc(O)c(O)c1` (centres unmarked) [Isuprel, reference compound], the Z-SCORE falls from 0.13 to -0.93.

First: CCCCC1=NC2(CCCC2)C(=O)N1Cc1ccc(-c2ccccc2-c2nnn[nH]2)cc1 [Irbesartan, reference compound]
Second: CC(CCc1ccccc1)NCC(O)c1ccc(O)c(C(N)=O)c1 (centres unmarked) [LABETALOL HYDROCHLORIDE, reference compound]
The Z-SCORE of the first is higher: 4.26 for the first, -1.04 for the second.

Compared with `NNC(=O)c1ccncc1` [Isoniazid, reference compound], `Nc1ccn([C@@H]2CS[C@H](CO)O2)c(=O)n1` [LAMIVUDINE, reference compound] is higher in Z-SCORE: -0.38 for the first, 0.33 for the second.

Compared with `CC1=C(/C=C/C(C)=C/C=C/C(C)=C\C(=O)O)C(C)(C)CCC1` [Isotretinoin, reference compound], `N[C@@H](Cc1cc(I)c(Oc2cc(I)c(O)c(I)c2)c(I)c1)C(=O)O` [L-THYROXINE, reference compound] is higher in Z-SCORE: -0.41 for the first, -0.07 for the second.

`CCC(C)n1ncn(-c2ccc(N3CCN(c4ccc(OCC5COC(Cn6cncn6)(c6ccc(Cl)cc6Cl)O5)cc4)CC3)cc2)c1=O` (centres unmarked) [Itraconazole, reference compound] was tested, and the Z-SCORE was -3.6.
